# Test results as given in patent US20240025871A1, “METHODS AND SYSTEMS FOR PRODUCTION OF FURFURAL” (SHELL OIL COMPANY, priority 2020, published 2024).
# Values joined by “and” are separate entries in the source; they are usually repeats but may differ in a detail not shown here. Equal values may be shown once. Read-outs that look alike come from different tables or passages of the source.
# Tests used:
# [1] = cited from earlier work
# [2] = Partition of components between water+sulfolane phase and methylnaphthalene phase after dehydration reaction; type: physicochemical; settings: room temperature; for [Conc]water+S: concentration in aqueous (water+sulfolane) phase; for [conc]MN: concentration in methylnaphthalene phase; for wt. %water+S: content in aqueous (water+sulfolane) phase; for wt. %MN: content in methylnaphthalene phase; for Pmol: ratio of absolute amounts polar/apolar phase, polar phase volume twice the apolar
# [3] = octanol-water; water-soluble solvents, Table 3; cited from earlier work
# [4] = water-insoluble boronic acids, Table 1
# [5] = water-insoluble solvents, Table 2
smiles,measurement,setting,value
CC(C)(C)c1ccc(B(O)O)cc1 [4-tert-Butylphenyl boronic acid],Water solubility g/L (20° C.),[1]; [4],Insoluble
Cc1cccc2ccccc12 [1-methylnaphtalene],[Conc]water+S,[2],3 mM
same,[conc]MN,[2],"7,000 mM"
same,wt. %water+S,[2]; listed as 1-MN,0.04 wt. %
same,wt. %water+S,[2]; listed as MN,< 0.1 wt. %
same,wt. %MN,[2],91 wt. %
same,Pmol,[2],0.0009
same,Water solubility g/L (20° C.),[1]; [5],0.026 g/L
OB(O)c1ccccc1 [phenylboronic acid],[Conc]water+S,[2],125 mM
same,[conc]MN,[2],340 mM
same,wt. %water+S,[2]; listed as PBA,< 1.3 wt. % and 1.3 wt. %
same,wt. %MN,[2],3.7 wt. %
same,Pmol,[2],0.74
CCCCc1ccc(B(O)O)cc1 [4-butylphenyl boronic acid],Water solubility g/L (20° C.),[1]; [4],Insoluble
O=S1(=O)CCCC1 [sulfolane],[Conc]water+S,[2],"5,100 mM"
same,[conc]MN,[2],370 mM
same,wt. %water+S,[2],54 wt. %
same,wt. %MN,[2],4 wt. %
same,wt. %MN,[2]; listed as Sulfolane,4.0 wt. %
same,Pmol,[2],13.8
O [water],[Conc]water+S,[2],"27,600 mM"
same,[conc]MN,[2],92 mM
same,wt. %water+S,[2],44 wt. %
same,wt. %MN,[2],0.15 wt. %
same,Pmol,[2],601
CC1CCC(=O)O1 (centres unmarked) [gamma valerolactone],LogP,[3],−0.27
CCc1ccc(O)cc1 [4Et-phenol],Water solubility g/L (20° C.),[1]; [5],6.1 g/L
CN1CCCC1=O [nMe-pyrrolidone],LogP,[3],−0.4
c1ccc2occc2c1 [Benzofuran],Water solubility g/L (20° C.),[1]; [5],insoluble
Cc1ccccc1B(O)O [o-tolylboronic acid],Water solubility g/L (20° C.),[1]; [4],Slightly
COCCOCCOC [Diglyme],LogP,[3],−0.8
CCCCCCCCB(O)O [octylboronic acid],Water solubility g/L (20° C.),[1]; [4],Insoluble
same,water solubility (in words),[1],water-insoluble
O=Cc1ccco1 [Furfural],[Conc]water+S,[2],103 mM
same,[conc]MN,[2],144 mM
same,wt. %water+S,[2],0.88 wt. %
same,wt. %water+S,[2]; listed as furfural,< 1 wt. %
same,wt. %MN,[2],1.3 wt. %
same,Pmol,[2],1.43
same,share of overall furfural produced contained in non-aqueous MN-rich phase,[2],41%
O=C1CCCO1 [gamma butyrolactone],LogP,[3],−0.76
